Data on 10 molecules can be found in patent publication US11857519B2, “Compounds and methods for the targeted degradation of enhancer of zeste homolog 2 polypeptide” (Arvinas Operations, Inc., priority 2016, dated 2024).

This assay deals with T1, EZH2 (Homo sapiens, UniProt Q15910).
T1 construct: Protocol of the Cellular Assay of Target Protein Degradation (VCaP Cells, ELISA); endogenous in cells; host or cells: VCaP cells
The experiment in a line: Cellular assay of target protein degradation (VCaP cells, ELISA). The assay is classed as cell-based. To be noted: 4 hours, protein degradation range at indicated concentration (relative to DMSO control). As for the experimental part:
Protocol of the Cellular Assay of Target Protein Degradation (VCaP Cells, ELISA).
For detection Cell Signaling PathScan Sandwich ELISA Catalog #12850 Lot 11 was used. VCaP cells were cultured in ATCC DMEM+ATCC FBS and plated 40,000/well 100 μl/well in RPMI P/S with 5% CSS Omega (bovine) serum into a 96 well plate. The cells were grown for a minimum of 3 days, dosed with compounds in 0.1% DMSO (diluted with 5% CSS) and incubated with aspiration for 4 hours. 100 μl of 1× Cell Signaling lysis buffer #9803 (36 mL dH2O+4 mL Cell Signaling lysis buffer) was added. The incubation was placed on cold room shaker for 10 minutes at speed 8-9. 5 μl to 100 μL of Diluent was transferred to ELISA plate (0.15 μg/mL−0.075 μg/mL) and stored at 4° C. overnight on cold room shaker speed 5 (gentle swirl) and then shaken next morning at 37° C. for 30 minutes. The preparation was washed 4×200 μl with ELISA wash buffer and aspirated with eight-channel aspirator. 100 μl/well of target protein detection antibody was added after, which the preparation was covered and shaken at 37° C. for 1 hour. 100 μl TMB was added, and the mixture was shaken for 5 min while under observation. When TMB turned light blue, 100 μl of Stop solution was added, and the mixture was shaken and read at 450 nm. Also read at 562 nm for background subtraction.
(In general: ELISA stands for enzyme-linked immunosorbent assay.)

T1 sequence (Q15910 whole entry): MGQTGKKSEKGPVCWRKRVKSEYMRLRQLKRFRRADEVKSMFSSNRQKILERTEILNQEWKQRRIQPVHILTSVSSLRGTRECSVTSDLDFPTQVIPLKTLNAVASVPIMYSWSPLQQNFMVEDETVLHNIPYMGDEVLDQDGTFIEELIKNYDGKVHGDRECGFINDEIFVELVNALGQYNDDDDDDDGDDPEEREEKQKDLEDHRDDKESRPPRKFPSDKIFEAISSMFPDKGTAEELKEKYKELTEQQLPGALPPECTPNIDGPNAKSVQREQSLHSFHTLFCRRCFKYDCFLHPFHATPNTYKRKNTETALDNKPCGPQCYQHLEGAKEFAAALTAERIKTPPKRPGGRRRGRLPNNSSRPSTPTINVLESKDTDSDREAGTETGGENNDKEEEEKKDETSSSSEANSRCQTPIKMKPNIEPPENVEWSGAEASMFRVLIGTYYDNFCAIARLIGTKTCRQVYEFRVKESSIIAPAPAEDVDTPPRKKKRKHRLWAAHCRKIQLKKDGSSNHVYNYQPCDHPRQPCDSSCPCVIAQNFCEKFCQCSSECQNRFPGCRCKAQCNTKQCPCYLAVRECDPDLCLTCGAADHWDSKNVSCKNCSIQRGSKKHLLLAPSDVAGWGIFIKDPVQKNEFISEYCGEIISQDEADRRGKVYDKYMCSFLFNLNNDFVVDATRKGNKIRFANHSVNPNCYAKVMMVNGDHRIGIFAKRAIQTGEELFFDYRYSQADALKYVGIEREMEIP
T1 sequence (O75530 whole entry partner): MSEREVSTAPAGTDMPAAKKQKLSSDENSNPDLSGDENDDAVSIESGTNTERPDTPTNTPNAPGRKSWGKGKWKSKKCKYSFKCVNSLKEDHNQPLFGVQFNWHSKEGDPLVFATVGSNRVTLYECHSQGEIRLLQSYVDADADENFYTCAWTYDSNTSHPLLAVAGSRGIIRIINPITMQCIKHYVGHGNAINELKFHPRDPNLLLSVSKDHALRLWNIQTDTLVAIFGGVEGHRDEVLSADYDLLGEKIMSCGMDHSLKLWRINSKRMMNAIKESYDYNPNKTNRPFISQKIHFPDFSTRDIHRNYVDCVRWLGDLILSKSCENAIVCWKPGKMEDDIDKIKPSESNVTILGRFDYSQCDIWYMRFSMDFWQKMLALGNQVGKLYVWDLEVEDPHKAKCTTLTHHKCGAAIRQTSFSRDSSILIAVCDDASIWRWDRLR
T1 sequence (Q15022 whole entry partner): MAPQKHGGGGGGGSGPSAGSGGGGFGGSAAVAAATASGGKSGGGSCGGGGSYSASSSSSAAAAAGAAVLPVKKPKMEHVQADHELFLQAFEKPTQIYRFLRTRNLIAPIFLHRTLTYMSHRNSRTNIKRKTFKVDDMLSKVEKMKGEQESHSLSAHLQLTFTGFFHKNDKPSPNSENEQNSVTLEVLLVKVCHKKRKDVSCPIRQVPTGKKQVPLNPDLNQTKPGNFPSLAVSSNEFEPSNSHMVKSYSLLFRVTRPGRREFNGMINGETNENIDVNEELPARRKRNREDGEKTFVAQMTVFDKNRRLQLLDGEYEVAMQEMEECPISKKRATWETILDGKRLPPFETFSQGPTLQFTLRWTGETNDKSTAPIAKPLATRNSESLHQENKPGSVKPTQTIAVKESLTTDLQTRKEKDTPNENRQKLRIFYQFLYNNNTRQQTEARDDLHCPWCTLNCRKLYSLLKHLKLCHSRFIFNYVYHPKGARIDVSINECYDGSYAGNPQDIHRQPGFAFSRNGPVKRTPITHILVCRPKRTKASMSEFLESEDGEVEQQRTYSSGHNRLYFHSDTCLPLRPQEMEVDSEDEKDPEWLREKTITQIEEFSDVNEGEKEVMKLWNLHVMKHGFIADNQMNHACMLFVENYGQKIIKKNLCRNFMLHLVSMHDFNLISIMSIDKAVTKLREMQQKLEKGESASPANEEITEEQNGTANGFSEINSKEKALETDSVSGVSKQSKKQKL

For the molecule `CCN(c1cc(-c2ccc(OCCOCCOCCOCCOCCOc3ccc(-c4csc([C@@H]5CCCN5C(=O)[C@@H](NC(=O)[C@H](C)NC)C5CCCCC5)n4)c4ccccc34)cc2)cc(C(=O)NCc2c(C)cc(C)[nH]c2=O)c1C)C1CCOCC1` [Compound 30, 5-(4-{[1-(4-{2-[(2S)-1-[(2S)-2-cyclohexyl-2-[(2S)-2-(methylamino)propanamido]acetyl]pyrrolidin-2-yl]-1,3-thiazol-4-yl}naphthalen-1-yl)-1,4,7,10,13-pentaoxapentadecan-15-yl]oxy}phenyl)-N-[(4,6-dimethyl-2-oxo-1,2-dihydropyridin-3-yl)methyl]-3-[ethyl(oxan-4-yl)amino]-2-methylbenzamide], the “percent target protein degradation class” value is “B (B = degradation between 30% and 60%)”.
Consider `CCN(c1cc(-c2ccc(OCCOCCOCC(=O)N[C@H](C(=O)N3C[C@H](O)C[C@H]3C(=O)NCc3ccc(-c4scnc4C)cc3)C(C)(C)C)cc2)cc(C(=O)NCc2c(C)cc(C)[nH]c2=O)c1C)C1CCOCC1` [Compound 31], for which the “percent target protein degradation class” value was “A (A = degradation more than 60%)”.
Turning to `CCN(c1cc(-c2ccc(OCCOCC(=O)N[C@H](C(=O)N3C[C@H](O)C[C@H]3C(=O)NCc3ccc(-c4scnc4C)cc3)C(C)(C)C)cc2)cc(C(=O)NCc2c(C)cc(C)[nH]c2=O)c1C)C1CCOCC1` [Compound 32, (2S,4R)-1-[(2S)-2-(2-{2-[4-(3-{[(4,6-dimethyl-2-oxo-1,2-dihydropyridin-3-yl)methyl]carbamoyl}-5-[ethyl(oxan-4-yl)amino]-4-methylphenyl)phenoxy]ethoxy}acetamido)-3,3-dimethylbutanoyl]-4-hydroxy-N-{[4-(4-methyl-1,3-thiazol-5-yl)phenyl]methyl}pyrrolidine-2-carboxamide], the “percent target protein degradation class” value was “B (B = degradation between 30% and 60%)”.
As to `CCN(c1cc(-c2ccc(OCCOCCOCCNc3cccc4c3C(=O)N(C3CCC(=O)NC3=O)C4=O)cc2)cc(C(=O)NCc2c(C)cc(C)[nH]c2=O)c1C)C1CCOCC1` (stereo not shown) [Compound 33, N-[(4,6-dimethyl-2-oxo-1,2-dihydropyridin-3-yl)methyl]-5-(4-{2-[2-(2-{[2-(2,6-dioxopiperidin-3-yl)-1,3-dioxo-2,3-dihydro-1H-isoindol-4-yl]amino}ethoxy)ethoxy]ethoxy}phenyl)-3-[ethyl(oxan-4-yl)amino]-2-methylbenzamide], the “percent target protein degradation class” value was “B (B = degradation between 30% and 60%)”.
Take `CCN(c1cc(-c2ccc(OCCOCCNc3cccc4c3C(=O)N(C3CCC(=O)NC3=O)C4=O)cc2)cc(C(=O)NCc2c(C)cc(C)[nH]c2=O)c1C)C1CCOCC1` (stereo not shown) [Compound 34, N-[(4,6-dimethyl-2-oxo-1,2-dihydropyridin-3-yl)methyl]-5-{4-[2-(2-{[2-(2,6-dioxopiperidin-3-yl)-1,3-dioxo-2,3-dihydro-1H-isoindol-4-yl]amino}ethoxy)ethoxy]phenyl}-3-[ethyl(oxan-4-yl)amino]-2-methylbenzamide]: the “percent target protein degradation class” value is “B (B = degradation between 30% and 60%)”.
Consider `CCN(c1cc(-c2ccc(OCCOCCOCCOCCOCCOc3cc(-c4scnc4C)ccc3CNC(=O)[C@@H]3C[C@@H](O)CN3C(=O)[C@H](C(C)C)N3Cc4ccccc4C3=O)cc2)cc(C(=O)NCc2c(C)cc(C)[nH]c2=O)c1C)C1CCOCC1` [Compound 35, (2S,4R)-N-{[2-({1-[4-(3-{[(4,6-dimethyl-2-oxo-1,2-dihydropyridin-3-yl)methyl]carbamoyl}-5-[ethyl(oxan-4-yl)amino]-4-methylphenyl)phenyl]-1,4,7,10,13-pentaoxapentadecan-15-yl}oxy)-4-(4-methyl-1,3-thiazol-5-yl)phenyl]methyl}-4-hydroxy-1-[(2S)-3-methyl-2-(1-oxo-2,3-dihydro-1H-isoindol-2-yl)butanoyl]pyrrolidine-2-carboxamide], for which the “percent target protein degradation class” value is “B (B = degradation between 30% and 60%)”.
With `CCN(c1cc(-c2ccc(OCCOCCOCCOCCOc3cc(-c4scnc4C)ccc3CNC(=O)[C@@H]3C[C@@H](O)CN3C(=O)[C@H](C(C)C)N3Cc4ccccc4C3=O)cc2)cc(C(=O)NCc2c(C)cc(C)[nH]c2=O)c1C)C1CCOCC1` [Compound 36, (2S,4R)-N-{[2-({1-[4-(3-{[(4,6-dimethyl-2-oxo-1,2-dihydropyridin-3-yl)methyl]carbamoyl}-5-[ethyl(oxan-4-yl)amino]-4-methylphenyl)phenyl]-1,4,7,10-tetraoxadodecan-12-yl}oxy)-4-(4-methyl-1,3-thiazol-5-yl)phenyl]methyl}-4-hydroxy-1-[(2S)-3-methyl-2-(1-oxo-2,3-dihydro-1H-isoindol-2-yl)butanoyl]pyrrolidine-2-carboxamide] the entry was “B (B = degradation between 30% and 60%)”; with `CCN(c1cc(-c2ccc(OCCOCCOCCOc3cc(-c4scnc4C)ccc3CNC(=O)[C@@H]3C[C@@H](O)CN3C(=O)[C@H](C(C)C)N3Cc4ccccc4C3=O)cc2)cc(C(=O)NCc2c(C)cc(C)[nH]c2=O)c1C)C1CCOCC1` [Compound 37, (2S,4R)-N-({2-[2-(2-{2-[4(3-{[(4,6-dimethyl-2-oxo-1,2-dihydropyridin-3-yl)methyl]carbamoyl}-5-[ethyl(oxan-4-yl)amino]-4-methylphenyl)phenoxy]ethoxy}ethoxy)ethoxy]-4-(4-methyl-1,3-thiazol-5-yl)phenyl}methyl)-4-hydroxy-1-[(2S)-3-methyl-2-(1-oxo-2,3-dihydro-1H-isoindol-2-yl)butanoyl]pyrrolidine-2-carboxamide], “A (A = degradation more than 60%)”.
With `CCN(c1cc(-c2ccc(OCCOCCOc3cc(-c4scnc4C)ccc3CNC(=O)[C@@H]3C[C@@H](O)CN3C(=O)[C@H](C(C)C)N3Cc4ccccc4C3=O)cc2)cc(C(=O)NCc2c(C)cc(C)[nH]c2=O)c1C)C1CCOCC1` [Compound 38, (2S,4R)-N-{[2-(2-{2-[4-(3-{[(4,6-dimethyl-2-oxo-1,2-dihydropyridin-3-yl)methyl]carbamoyl}-5-[ethyl(oxan-4-yl)amino]-4-methylphenyl)phenoxy]ethoxy}ethoxy)-4-(4-methyl-1,3-thiazol-5-yl)phenyl]methyl}-4-hydroxy-1-[(2S)-3-methyl-2-(1-oxo-2,3-dihydro-1H-isoindol-2-yl)butanoyl]pyrrolidine-2-carboxamide] the entry was “B (B = degradation between 30% and 60%)”; with `CCN(c1cc(-c2ccc(OCCCOCCCOCCCOc3cc(-c4scnc4C)ccc3CNC(=O)[C@@H]3C[C@@H](O)CN3C(=O)[C@H](C(C)C)N3Cc4ccccc4C3=O)cc2)cc(C(=O)NCc2c(C)cc(C)[nH]c2=O)c1C)C1CCOCC1` [Compound 39, (2S,4R)-N-({2-[3-(3-{3-[4-(3-{[(4,6-dimethyl-2-oxo-1,2-dihydropyridin-3-yl)methyl]carbamoyl}-5-[ethyl(oxan-4-yl)amino]-4-methylphenyl)phenoxy]propoxy}propoxy)propoxy]-4-(4-methyl-1,3-thiazol-5-yl)phenyl}methyl)-4-hydroxy-1-[(2S)-3-methyl-2-(1-oxo-2,3-dihydro-1H-isoindol-2-yl)butanoyl]pyrrolidine-2-carboxamide], “B (B = degradation between 30% and 60%)”.
